Measurements as given in PubChem BioAssay (NCI).
Several values for one entry are separate records, joined by “and”; a condition that tells them apart may be missing. Identical values can stand only once.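 Growth conditions: 96-well plates. Treatment: test compound, 48 hours, 5 concentrations. Analysis: linear interpolation between bracketing concentrations; unreached endpoints set to highest concentration. Here, GI50 denotes the concentration required for 50% inhibition of growth. At the TGI there is no net growth.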

What was measured:
Test in all cases: NCI anticancer screen, dose series, 48 h
[1] = system: UO-31 renal
[2] = system: UACC-257 melanoma
[3] = system: NCI-H226 lung
[4] = system: OVCAR-8 ovarian
[5] = system: NCI-H522 lung
[6] = system: NCI-H460 lung
[7] = system: NCI/ADR-RES ovarian
[8] = system: SK-OV-3 ovarian
[9] = system: SF-268 CNS
[10] = system: RXF 393 renal

Structure (SMILES)	GI50 [1]	TGI [1]	GI50 [2]	TGI [2]	GI50 [3]	TGI [3]	GI50 [4]	TGI [4]	GI50 [5]	TGI [5]	GI50 [6]	TGI [6]	GI50 [7]	TGI [7]	GI50 [8]	TGI [8]	GI50 [9]	TGI [9]	GI50 [10]	TGI [10]
N#Cc1c(C(=O)c2ccccc2)cnn1-c1ccccc1	> 25 µM	> 25 µM	> 25 µM	> 25 µM	> 25 µM	> 25 µM	> 25 µM	> 25 µM	> 25 µM	> 25 µM	> 25 µM	> 25 µM	> 25 µM	> 25 µM	> 25 µM	> 25 µM	> 25 µM	> 25 µM	> 25 µM	> 25 µM
Cc1ccc(C(CN(C)C)C(=O)c2ccccc2)cc1 (stereo not given)	1.86 µM	3.86 µM	5.74 µM	19.2 µM	2.97 µM	20.9 µM	3.13 µM	11.3 µM	1.8 µM	3.52 µM	7.38 µM	21.9 µM	2.89 µM	12.6 µM	14.7 µM	31.3 µM	3.13 µM	13 µM	2.56 µM	7.52 µM
CC12CCC3C(CC=C4CC(O)CCC43C)C1C/C(=C\N1CCCC1)C2=O (stereo not given)	67.2 µM	> 100 µM	> 100 µM	> 100 µM	> 100 µM	> 100 µM	> 100 µM	> 100 µM	> 100 µM	> 100 µM	> 100 µM	> 100 µM	> 100 µM	> 100 µM	> 100 µM	> 100 µM	> 100 µM	> 100 µM	41.8 µM	> 100 µM
CC(=O)O[C@H]1C(=O)[C@@]2(C)C(C(OC(=O)c3ccccc3)[C@]3(O)CC(OC(=O)[C@H](OC(=O)CCC(=O)O)C(NC(=O)c4ccccc4)c4ccccc4)C(C)=C1C3(C)C)C1(OC(C)=O)COC1C[C@@H]2OC(=O)CCC(=O)O (stereo not given in full)	–	> 100 µM	–	> 100 µM	–	81.1 µM and > 100 µM	–	> 100 µM	–	–	–	–	> 100 µM and 26.6 µM	> 100 µM	–	> 100 µM	–	> 100 µM	–	> 26 µM
C[C@]12CCC3[C@@H](C[C@@H]4SC(Nc5ccccc5)=N[C@@]45CC(=O)CC[C@]35C)[C@@H]1CCC2=O (stereo not given in full)	5.26 µM	19.4 µM	23.8 µM	94.5 µM	7.36 µM	45 µM	7.61 µM	> 100 µM	6.6 µM	23.6 µM	4.65 µM	27.9 µM	6.34 µM	> 100 µM	34 µM	> 100 µM	5.95 µM	70 µM	3.18 µM	14.2 µM
COc1ccccc1-[n+]1cc(-c2ccc(-c3ccccc3)cc2)n2c1CCCCC2	2.19 µM	11.1 µM	0.318 µM	12.9 µM	0.773 µM	13.4 µM	0.528 µM	15.9 µM	0.169 µM	9.03 µM	0.388 µM	11.5 µM	19.8 µM	60.4 µM	0.368 µM	5.82 µM	0.423 µM	14.8 µM	0.867 µM	9.5 µM
C[C@@H]1C=C(CCCCCCCCCCC[C@H](O)[C@@H]2CCC(=O)O2)C(=O)O1	20.1 µM	55.6 µM	43.2 µM	> 100 µM	15.9 µM	68.5 µM	23.4 µM	69 µM	15.9 µM	49.2 µM	31.2 µM	> 100 µM	12.1 µM	34 µM	51.7 µM	> 100 µM	40.3 µM	> 100 µM	47.2 µM	> 100 µM
CCCC1c2c(ccc3ccccc23)Oc2ccc3ccccc3c21	–	> 100 µM	–	70.8 µM	–	> 100 µM	–	> 100 µM	–	80.4 µM	–	> 100 µM	–	> 100 µM	–	> 100 µM	–	> 100 µM	–	> 100 µM
Cc1ccc2c(c1)nc(C(=O)c1ccco1)c(C(F)(F)F)[n+]2[O-]	47.2 µM	> 100 µM	63.4 µM	> 100 µM	> 100 µM	> 100 µM	> 100 µM	> 100 µM	66.7 µM	> 100 µM	> 100 µM	> 100 µM	57 µM	> 100 µM	> 100 µM	> 100 µM	> 100 µM	> 100 µM	> 100 µM	> 100 µM
c1ccc(Cc2nc3ccc(Nc4ncnc5ccccc45)cc3[nH]2)cc1	8.98 µM	> 25 µM	> 25 µM	> 25 µM	> 25 µM	> 25 µM	> 25 µM	> 25 µM	> 15.1 µM	> 25 µM	> 25 µM	> 25 µM	> 25 µM	> 25 µM	7.03 µM	> 25 µM	> 25 µM	> 25 µM	> 25 µM	> 25 µM
CC(=O)Nc1ccc(/C=C/[N+](=O)[O-])cc1	–	4.58 µM	–	17 µM	–	3.94 µM	–	15.4 µM	–	0.815 µM	–	20.7 µM	–	31.3 µM	–	24.1 µM	–	11.2 µM	–	6.43 µM
Cc1c(C#N)cccc1-c1cc(-c2cn(Cc3cccc(C(C)(C)O)n3)nn2)nc(N)n1	10.7 µM	> 100 µM	27.7 µM	> 100 µM	22.7 µM	91.9 µM	24.2 µM	> 100 µM	12.4 µM	> 100 µM	44.9 µM	> 100 µM	24.1 µM	> 100 µM	48.8 µM	> 100 µM	45.4 µM	> 100 µM	22.9 µM	> 100 µM
Cc1c(N=Nc2ccc([N+](=O)[O-])cc2)nc2scc(-c3ccccc3)n12	–	> 100 µM	–	> 100 µM	–	> 100 µM	–	> 100 µM	–	> 100 µM	–	> 100 µM	–	> 100 µM	–	> 100 µM	–	> 100 µM	–	> 100 µM
O=C(O)c1cc2ccccc2c(O)c1O	–	35.4 µM	–	23.1 µM	–	42.7 µM	–	27.4 µM	–	28.9 µM	–	41.8 µM	–	41.5 µM	–	29 µM	–	32 µM	–	31.7 µM
CCCCn1c2cc(OCc3cn(-c4ccc(Cl)cc4)nn3)ccc2c2ccnc(C)c21	4.32 µM	10 µM	5.83 µM	11.1 µM	5.51 µM	14.1 µM	6.42 µM	23.9 µM	4.72 µM	13.3 µM	7.2 µM	18.6 µM	6.98 µM	29.7 µM	5.45 µM	13.4 µM	9.15 µM	> 33.3 µM	6.5 µM	19.8 µM
Oc1ccc(/C=N\Nc2ccccn2)c(O)c1	0.241 µM	0.719 µM	2.73 µM	16.7 µM	2.25 µM	7.03 µM	0.645 µM	> 100 µM	1.29 µM	> 100 µM	0.443 µM	3.99 µM	0.364 µM	> 100 µM	3.24 µM	> 100 µM	0.494 µM	6 µM	2.24 µM	53.4 µM
O=c1cc(C(F)(F)F)c2cc3c(cc2o1)NCCC3	–	> 100 µM	–	> 100 µM	–	> 100 µM	–	> 100 µM	–	> 100 µM	–	> 100 µM	–	> 100 µM	–	–	–	> 100 µM	–	0.987 µM
C(=N\Nc1ccccn1)/c1ccccn1	0.267 µM	> 34.1 µM	0.453 µM	–	0.356 µM	–	0.411 µM	> 100 µM	0.71 µM	> 100 µM	0.321 µM	3.98 µM	0.359 µM	> 39.7 µM	0.393 µM	–	0.309 µM	> 23.4 µM	0.335 µM	–
O=C(/C=C/c1cccnc1)NCCCCC1CCN(C(=O)c2ccccc2)CC1	> 100 µM	> 100 µM	> 100 µM	> 100 µM	> 100 µM and 62.3 µM	> 100 µM	< 0.01 µM	> 100 µM	< 0.01 µM	> 100 µM	0.274 µM and 0.0767 µM	> 100 µM	< 0.0135 µM	> 100 µM	> 100 µM	> 100 µM	> 100 µM	> 100 µM	> 100 µM	> 100 µM
CCCC[C@H]1C(=O)O[C@H](C)[C@H](NC(=O)c2cccc(NC=O)c2O)C(=O)O[C@@H](C)[C@@H]1OC(=O)CC(C)C	–	33.2 µM	–	69.6 µM	–	23.8 µM	–	40.5 µM	–	31.6 µM	–	27.4 µM	–	65.6 µM	–	54.4 µM	–	35.5 µM	–	24.6 µM
Cc1ccc(C(=O)Nc2ccc(CN3CCN(C)CC3)c(C(F)(F)F)c2)cc1C#Cc1cnc(N)cc1C#N	0.0949 µM	0.442 µM	0.132 µM	0.834 µM	0.155 µM	4.95 µM	0.224 µM	1.15 µM	0.176 µM	0.925 µM	0.0915 µM	0.968 µM	0.27 µM	1.68 µM	0.186 µM	2.5 µM	0.2 µM	1.2 µM	0.129 µM	0.706 µM
C=C1C(=O)O[C@H]2[C@H]1CC/C(COC(=O)NCc1cc3ccccc3[nH]1)=C\CC[C@@]1(C)O[C@@H]21	1.2 µM	2.43 µM	2.11 µM	4.61 µM	1.6 µM	3.15 µM	2.02 µM	5.41 µM	1.5 µM	3.29 µM	3.78 µM	14.6 µM	2.52 µM	8.06 µM	13.8 µM	26.8 µM	2.08 µM	5.4 µM	1.09 µM	2.36 µM
O=C1CCC(Cc2ccc(Cl)cc2Cl)C(=O)N1 (stereo not given)	–	> 100 µM	–	> 100 µM	–	> 100 µM	–	> 100 µM	–	> 100 µM	–	> 100 µM	–	> 100 µM	–	> 100 µM	–	> 100 µM	–	> 100 µM
O=C(O)C(=Cc1ccnc2ccccc12)C(=O)O	–	–	–	> 100 µM	–	> 100 µM	–	> 100 µM	–	> 100 µM	–	> 100 µM	–	> 100 µM	–	> 100 µM	–	> 100 µM	–	> 100 µM
O=Cc1c(-c2cc(O)ccc2O)nc2sccn12	1.05 µM	2.38 µM	29.9 µM	95.8 µM	14.7 µM	37.7 µM	21.4 µM	> 100 µM	–	–	18 µM	40.8 µM	16 µM	48.5 µM	78.5 µM	> 100 µM	3.83 µM	38.3 µM	7.83 µM	26.6 µM
C=C1[C@@H](C)[C@H]2[C@H](Cc3ccccc3)NC(=O)[C@]23OC(=O)/C=C/[C@H](O)CCC[C@@H](C)C/C=C/[C@H]3[C@@H]1O	–	4.12 µM	–	59.9 µM	–	23.4 µM	–	66.4 µM	–	> 92.2 µM	–	57.8 µM	–	91.1 µM	–	> 100 µM	–	73.6 µM	–	27.9 µM
O=C(/C=C/c1ccc(OCC(=O)N2CCN(c3ccccc3)CC2)cc1)c1ccc(Cl)cc1	–	> 97.2 µM	–	> 100 µM	–	97.9 µM	–	> 100 µM	–	> 100 µM	–	> 100 µM	–	> 100 µM	–	73.8 µM	–	> 92.7 µM	–	55.1 µM
C1CC[N-]CC1.C1CC[N-]CC1.C1CC[N-]CC1.C1CC[N-]CC1.[Cl][Rh][Cl]	34.4 µM	> 100 µM	3.21 µM	69.4 µM	4.47 µM	> 100 µM	4.07 µM	> 100 µM	1.03 µM	2.65 µM	2.87 µM	26.5 µM	> 100 µM	> 100 µM	14.8 µM	> 100 µM	5.21 µM	27.9 µM	13.8 µM	81.1 µM
COc1cc2oc(=O)ccc2cc1C1OC(=O)C2OC21C (stereo not given)	–	> 100 µM	–	> 100 µM	–	> 100 µM	–	> 100 µM	–	–	–	> 100 µM	–	> 100 µM	–	> 100 µM	–	> 100 µM	–	> 100 µM
